These results are taken from US11873291B2, “Quinoline cGAS antagonist compounds” (ImmuneSensor Therapeutics, Inc., priority 2020, dated 2024).

The target in assay [1] is T1, recombinant human cGAS (aa147-522) (Homo sapiens, UniProt Q8N884).
T1 construct: recombinant human cGAS (aa147-522); His6-SUMO (cleaved yes); made in house; host or cells: E. coli BL21/pLys
In words: In vitro inhibition assay of cGAS activity (ATP consumption, KinaseGlo Max). The class given is biochemical. In a few lines:
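IC50 came from plotting % ATP consumption against log compound concentration, with leftover ATP detected by KinaseGlo Max chemiluminescence. Reactions ran 20 min at 37 °C with 1.5 μg/mL human cGAS (aa147-522), 6.6 μM ATP, 0.1 mM GTP and 0.01 mg/mL DNA at pH 7.5.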
(Kinase-Glo measures the ATP left after a reaction by luminescence.)

Assay [2] has as its system cGAS activity in Reporter THP1 cell line. In words: Cellular assay to measure cGAS activity: ISRE-Gaussia luciferase reporter THP1 cells transfected with ISD. The class given is cell-based. As to conditions: Homo sapiens. The procedure, abridged:
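THP1 ISRE-Gaussia luciferase reporter cells (0.3×10^6/well) pre-incubated 5 min with compound serial dilutions, then lipofectamine-transfected with 2 μg/mL ISD (45 bp DNA) or mock. Secreted luciferase read 16 h later with 1 μM coelenterazine at pH 6.5; IC50 from fold increase over mock. Specificity counter-screen used 2 μg/mL poly(I:C) or Sendai virus 50 Unit/mL.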
In general terms: Reporter assays use an easily measured gene product as a stand-in for the process of interest.

Where [3] appears, read: Table 3, read-out: cGAS Inhibition Results IC50.
Setting [4] is: THP-1, untitled table after Table 4 (continuation).
The mark [5] stands for this setting: THP-1, Table 4, Gaussia luciferase.
Where [6] appears, read: Table 2, read-out: cGAS Inhibition Results IC50.

Read-outs that look alike come from different tables or passages of the source.

T1 sequence (Q8N884 147-522): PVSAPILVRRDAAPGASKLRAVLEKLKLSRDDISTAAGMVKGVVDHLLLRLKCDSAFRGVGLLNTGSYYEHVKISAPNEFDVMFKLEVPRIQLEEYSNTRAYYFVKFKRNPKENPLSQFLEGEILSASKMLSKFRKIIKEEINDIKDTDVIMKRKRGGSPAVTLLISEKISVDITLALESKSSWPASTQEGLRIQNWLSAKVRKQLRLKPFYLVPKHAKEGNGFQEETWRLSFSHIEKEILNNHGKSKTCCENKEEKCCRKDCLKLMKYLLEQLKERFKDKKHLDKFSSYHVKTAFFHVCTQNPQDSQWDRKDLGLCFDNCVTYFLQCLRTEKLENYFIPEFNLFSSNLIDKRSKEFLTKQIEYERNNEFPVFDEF

For `O=C(O)CCOCCOc1cc(-n2ccnc2)c2ccc(Cl)c(Cl)c2n1` [I-828, 3-(2-((7,8-dichloro-4-(1H-imidazol-1-yl)quinolin-2-yl)oxy)ethoxy)propanoic acid], the values for the IC50 in assay [1] (setting [3]) and in assay [2] (setting [4]) were 2000 to 30000 nM and over 10000 nM, respectively.

In the case of `O=C(O)CCCC1CCCN(c2cc(-n3ccnc3)c3ccc(Cl)c(Cl)c3n2)C1` (stereo not drawn) [I-739], the half-maximal inhibitory concentration (IC50) in assay [1] (setting [3]) and in assay [2] (setting [5]) was under 2000 nM throughout.

As for `O=C(O)CCOCCN(Cc1ccccc1)c1cc(-n2ccnc2)c2ccc(Cl)c(Cl)c2n1` [I-837], the IC50 in assay [1] (setting [3]) and in assay [2] (setting [4]) was under 2000 nM throughout.

In the case of `O=C(O)[C@@H]1CCCN1c1cc(-n2ccnc2)c2ccc(Cl)c(Cl)c2n1` [I-428], the figures for the IC50 in assay [1] (setting [6]) and in assay [2] (setting [5]) were under 2000 nM and 2000 to 10000 nM, respectively.

As for `O=C(O)CCOC[C@@H]1CCCN1c1cc(-c2cn[nH]c2)c2c(Cl)cc(Cl)cc2n1` [I-855], the IC50 in assay [1] (setting [3]) was 2000 to 30000 nM; in assay [2] (setting [4]), over 10000 nM.

For `COC(=O)CCOC[C@@H]1CCCN1c1cc(-c2cn[nH]c2)c2ccc(Cl)c(Cl)c2n1` [I-671], the IC50 in assay [1] (setting [3]) and in assay [2] (setting [5]) was under 2000 nM in each case.

Consider `O=C(O)COC[C@@H]1CN(c2cc(-c3cn[nH]c3)c3ccc(Cl)c(Cl)c3n2)CCO1` [I-740], for which the figures for the IC50 in assay [1] (setting [3]) and in assay [2] (setting [5]) were under 2000 nM and over 10000 nM, respectively.

Turning to `O=C(O)CCOC[C@@H]1C[C@H](Oc2ccccc2)CN1c1cc(-n2ccnc2)c2ccc(Cl)c(Cl)c2n1` [I-713], the IC50 in assay [1] (setting [3]) and in assay [2] (setting [5]) was under 2000 nM in each case.

With `O=C(O)CCOC[C@@H]1CCCN(c2cc(-c3cn[nH]c3)c3ccc(Cl)c(Cl)c3n2)C1` [I-747], the IC50 in assay [1] (setting [3]) and in assay [2] (setting [5]) was under 2000 nM in each case.

For the compound `COC(=O)[C@@H]1C[C@H]2C[C@H]2N1c1cc(-n2ccnc2)c2ccc(Cl)c(Cl)c2n1` [I-591], the figures for the concentration for half-maximal inhibition (IC50) in assay [1] (setting [3]) and in assay [2] (setting [5]) were 2000 to 30000 nM and 2000 to 10000 nM, respectively.

Regarding `CO[C@H]1C[C@@H](COCCC(=O)O)N(c2cc(-n3ccnc3)c3ccc(Cl)c(Cl)c3n2)C1` [I-797], the IC50 in assay [1] (setting [3]) and in assay [2] (setting [4]) was under 2000 nM in each case.

For `CN(CCCOc1ccccc1C(=O)O)c1cc(-n2ccnc2)c2ccc(Cl)c(Cl)c2n1` [I-846], the IC50 in assay [1] (setting [3]) and in assay [2] (setting [4]) was under 2000 nM throughout.

For the compound `OC[C@@H]1CCCN1c1cc(-n2ccnc2)c2ccc(Cl)c(Cl)c2n1` [I-139], the results for the IC50 in assay [1] (setting [6]) and in assay [2] (setting [5]) were under 2000 nM and 2000 to 10000 nM, respectively.

Consider `O=C(O)C[C@H]1CCCN1c1cc(-n2ccnc2)c2ccc(Cl)c(Cl)c2n1` [I-776], for which the figures for the IC50 in assay [1] (setting [3]) and in assay [2] (setting [4]) were under 2000 nM and over 10000 nM, respectively.

Consider `COC(=O)CCOC[C@@H]1CCCN1c1cc(-n2ccnc2)c2ccc(Cl)c(Cl)c2n1` [I-665, methyl (S)-3-((1-(7,8-dichloro-4-(1H-imidazol-1-yl)quinolin-2-yl)pyrrolidin-2-yl)methoxy)propanoate], for which the IC50 in assay [1] (setting [3]) and in assay [2] (setting [5]) was under 2000 nM each time.

For the compound `O=C(O)CCOC[C@@H]1CCN(c2cc(-n3ccnc3)c3ccc(Cl)c(Cl)c3n2)C1` [I-773], the IC50 in assay [1] (setting [3]) and in assay [2] (setting [4]) was under 2000 nM each time.

On to `O=C(O)C(F)COC[C@@H]1CCCN1c1cc(-n2ccnc2)c2ccc(Cl)c(Cl)c2n1` (stereo partly drawn) [I-716, 3-(((S)-1-(7,8-dichloro-4-(1H-imidazol-1-yl)quinolin-2-yl)pyrrolidin-2-yl)methoxy)-2-fluoropropanoic acid], for which the IC50 in assay [1] (setting [3]) is under 2000 nM; in assay [2] (setting [5]), over 10000 nM.

For `O=C(O)CCC[C@@H]1CCCN1c1cc(-n2ccnc2)c2ccc(Cl)c(Cl)c2n1` [I-682], the IC50 in assay [1] (setting [3]) and in assay [2] (setting [5]) was under 2000 nM in each case.

Turning to `COC(=O)[C@@H]1[C@@H]2C[C@@H]2CN1c1cc(-n2ccnc2)c2ccc(Cl)c(Cl)c2n1` [I-577], the half-inhibitory concentration (IC50) in assay [1] (setting [3]) was in the range of 2000 to 30000 nM; in assay [2] (setting [5]), 2000 to 10000 nM.

With `O=C(O)CCOC[C@@H]1C[C@@H]2C[C@@H]2N1c1cc(-n2ccnc2)c2ccc(Cl)c(Cl)c2n1` [I-707], the IC50 in assay [1] (setting [3]) and in assay [2] (setting [5]) was under 2000 nM in each case.

Take `COC(=O)C(C)COC[C@@H]1CCCN1c1cc(-n2ccnc2)c2ccc(Cl)c(Cl)c2n1` (stereo partly drawn) [I-720]: the results for the IC50 in assay [1] (setting [3]) and in assay [2] (setting [5]) were 2000 to 30000 nM and under 2000 nM, respectively.

As usually defined, the IC50 is the concentration that inhibits the measured activity by half.
